Results reported in ChEMBL document CHEMBL1201862, “PubChem BioAssay data set” (2004).
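48-hour exposure; five concentrations; linearly interpolated endpoints. GI50 is the concentration that inhibits growth by half.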 Activity calls are given as the source filed them. Rule as the data show it: active = GI50 up to about 1.1 µM and inactive = higher. Where a SMILES comes first, the peptide text is derived from it.

Columns and labels:
Test in all cases: NCI tumour cell line growth inhibition, 48 h
RPMI-8226 = test system: RPMI-8226
NCI-H23 = test system: NCI-H23
UACC-62 = test system: UACC-62
SF-539 = test system: SF-539
786-0 = test system: 786-0
SK-MEL-28 = test system: SK-MEL-28
SR = test system: SR
LOX IMVI = test system: LOX IMVI
UACC-257 = test system: UACC-257
SK-MEL-2 = test system: SK-MEL-2
SNB-75 = test system: SNB-75
SF-268 = test system: SF-268
HOP-62 = test system: HOP-62
K562 = test system: K562
NCI-H522 = test system: NCI-H522
CCRF-CEM = test system: CCRF-CEM
U-251 = test system: U-251
MDA-MB-435 = test system: MDA-MB-435
IGROV-1 = test system: IGROV-1
A498 = test system: A498

Measured: GI50

CC(C)(CCc1nc2ccccc2[nH]1)C(=O)O
inactive: RPMI-8226 > 100 µM | NCI-H23 > 100 µM | UACC-62 > 100 µM | SF-539 > 100 µM | 786-0 > 100 µM | SK-MEL-28 > 100 µM | SR > 100 µM | LOX IMVI > 100 µM | UACC-257 > 100 µM | SK-MEL-2 > 100 µM | SNB-75 > 100 µM | SF-268 > 100 µM | HOP-62 > 100 µM | K562 > 28 µM | NCI-H522 > 100 µM | CCRF-CEM > 100 µM | U-251 > 100 µM | MDA-MB-435 > 100 µM | IGROV-1 > 100 µM | A498 > 49.2 µM

O=c1c(Cl)cc2nc3ccccc3sc-2c1Cl
inactive: RPMI-8226 4.25 µM | NCI-H23 11 µM | UACC-62 11.5 µM | SF-539 16.7 µM | 786-0 21.2 µM | SK-MEL-28 18.1 µM | SR 4.57 µM | LOX IMVI 12 µM | UACC-257 2.75 µM | SK-MEL-2 13.7 µM | SNB-75 16.2 µM | SF-268 14.9 µM | HOP-62 26.1 µM | K562 6.85 µM | NCI-H522 12.4 µM | CCRF-CEM 4.67 µM | U-251 17.6 µM | MDA-MB-435 2.82 µM | IGROV-1 13.6 µM | A498 33.9 µM

O=C(NCCc1ccccc1)c1cc(/C=C/c2cc(O)ccc2O)ccc1O
inactive: RPMI-8226 1.82 µM | NCI-H23 4.95 µM | UACC-62 2.03 µM | SF-539 2.38 µM | 786-0 2.38 µM | SK-MEL-28 3.08 µM | SR 3.01 µM | LOX IMVI 4.17 µM | UACC-257 2.64 µM | SK-MEL-2 3.57 µM | SNB-75 5.57 µM | SF-268 3.19 µM | HOP-62 5.69 µM | K562 2.59 µM | NCI-H522 1.64 µM | CCRF-CEM 2.11 µM | U-251 2.36 µM | MDA-MB-435 3.96 µM | IGROV-1 3.03 µM | A498 4.4 µM

CC(=O)NC(CS)C(=O)NC(CO)C(=O)NC(CO)C(=O)NC(Cc1c[nH]c2ccccc12)C(=O)N1CCCC1C(=O)NC(CO)C(=O)NC(Cc1c[nH]c2ccccc12)C(=O)NC(Cc1c[nH]cn1)C(=O)NC(CO)C(=O)NC(Cc1c[nH]c2ccccc12)C(=O)NCC(=O)NCC(=O)NC(CC(=O)O)C(=O)NC(CCC(N)=O)C(=O)NC(CCCCN)C(=O)NC(Cc1ccccc1)C(=O)NC(CCCNC(=N)N)C(=O)NC(CCCCN)C(N)=O (stereo not given) (Ac-CSSWPSWHSWGGDQKFRK-NH2; configuration not given here)
inactive: RPMI-8226 > 25 µM | NCI-H23 > 25 µM | UACC-62 > 25 µM | SF-539 > 25 µM | 786-0 > 25 µM | SK-MEL-28 > 25 µM | SR > 25 µM | LOX IMVI > 25 µM | UACC-257 > 25 µM | SK-MEL-2 > 25 µM | SNB-75 > 25 µM | SF-268 > 25 µM | HOP-62 > 25 µM | K562 > 25 µM | NCI-H522 > 25 µM | CCRF-CEM > 25 µM | U-251 > 25 µM | MDA-MB-435 > 25 µM | IGROV-1 > 25 µM | A498 > 25 µM
